Results reported in patent US11998539B2, “Substituted aminoquinolones as DGKalpha inhibitors for immune activation” (Bayer Aktiengesellschaft, priority 2019, dated 2024).

These molecules were tested against DGKα (Homo sapiens (Human), UniProt P23743) (assay: Human DGKα kinase activity inhibition assay (ADP-Glo)). Conditions: recombinant full-length human DGKα, 55 μM ATP, 7 μM 1,2-dioleoyl-sn-glycerol, read-out: IC50 values of examples in in vitro human DGKa kinase activity inhibition assays.
Format: biochemical
How it was run: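 Activity was measured as ADP production, detected by luciferase luminescence after removal of unused ATP. The enzyme was baculovirus-expressed full-length human DGKα with a C-terminal FLAG tag. The substrate was 1,2-dioleoyl-sn-glycerol in detergent micelles, and compounds came from 100× DMSO solutions.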

Sequence of DGKα (P23743 other isoform, or with tags, fused parts or gaps): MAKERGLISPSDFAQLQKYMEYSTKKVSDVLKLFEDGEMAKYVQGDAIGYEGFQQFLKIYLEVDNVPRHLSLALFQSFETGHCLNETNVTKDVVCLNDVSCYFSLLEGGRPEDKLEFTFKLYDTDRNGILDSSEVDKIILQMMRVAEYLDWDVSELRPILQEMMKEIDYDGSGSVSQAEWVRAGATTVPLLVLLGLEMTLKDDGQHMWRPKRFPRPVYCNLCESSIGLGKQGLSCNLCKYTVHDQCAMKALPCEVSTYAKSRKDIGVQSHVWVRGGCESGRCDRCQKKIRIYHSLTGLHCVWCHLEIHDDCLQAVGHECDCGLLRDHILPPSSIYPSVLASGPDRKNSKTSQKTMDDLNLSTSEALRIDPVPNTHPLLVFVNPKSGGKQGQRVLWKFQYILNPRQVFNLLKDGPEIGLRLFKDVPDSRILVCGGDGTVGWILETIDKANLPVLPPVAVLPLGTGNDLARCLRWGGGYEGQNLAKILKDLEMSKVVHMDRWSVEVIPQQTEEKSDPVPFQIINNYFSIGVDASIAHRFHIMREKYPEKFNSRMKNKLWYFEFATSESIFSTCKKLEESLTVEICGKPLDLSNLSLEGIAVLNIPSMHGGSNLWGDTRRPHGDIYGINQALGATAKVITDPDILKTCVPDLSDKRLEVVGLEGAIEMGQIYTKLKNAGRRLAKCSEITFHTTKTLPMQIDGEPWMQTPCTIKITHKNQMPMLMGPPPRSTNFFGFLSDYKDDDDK

Row | Structure (SMILES) | IC50 [nM]
1 | CCCOc1ccc2c(N3CCC(c4nc5ccccc5s4)CC3)c(C#N)c(=O)n(C)c2c1 [Example 270, 4-[4-(1,3-benzothiazol-2-yl)piperidin-1-yl]-1-methyl-2-oxo-7-propoxy-1,2-dihydroquinoline-3-carbonitrile] | 72
2 | Cc1ccc2oc(C3(C)CCN(c4c(C#N)c(=O)n(C)c5c(C6CC6)cccc45)CC3)nc2c1 [Example 272, 8-cyclopropyl-1-methyl-4-[4-methyl-4-(5-methyl-1,3-benzoxazol-2-yl)piperidin-1-yl]-2-oxo-1,2-dihydroquinoline-3-carbonitrile] | 113
3 | CCCOc1cccc2c(N3CCC(C)(c4nc5cc(C)ccc5o4)CC3)c(C#N)c(=O)n(C)c12 [Example 273, 1-methyl-4-[4-methyl-4-(5-methyl-1,3-benzoxazol-2-yl)piperidin-1-yl]-2-oxo-8-propoxy-1,2-dihydroquinoline-3-carbonitrile] | 119
4 | Cc1ccc2oc(C3(C)CCN(c4c(C#N)c(=O)n(C)c5ccc(OC6CC6)cc45)CC3)nc2c1 [Example 274, 6-(cyclopropyloxy)-1-methyl-4-[4-methyl-4-(5-methyl-1,3-benzoxazol-2-yl)piperidin-1-yl]-2-oxo-1,2-dihydroquinoline-3-carbonitrile] | 152
5 | Cn1c(=O)c(C#N)c(N2CCC(c3nc4ccccc4o3)CC2)c2ccc(C#N)cc21 [Example 275, 4-[4-(1,3-benzoxazol-2-yl)piperidin-1-yl]-1-methyl-2-oxo-1,2-dihydroquinoline-3,7-dicarbonitrile] | 172
6 | Cn1c(=O)c(C#N)c(N2CCC(c3nc4ccccc4s3)CC2)c2cc(C3CC3)ccc21 [Example 276, 4-[4-(1,3-benzothiazol-2-yl)piperidin-1-yl]-6-cyclopropyl-1-methyl-2-oxo-1,2-dihydroquinoline-3-carbonitrile] | 216
7 | Cc1ccc2oc(C3(C)CCN(c4c(C#N)c(=O)n(C)c5ccc(N6C[C@H](O)CC6=O)cc45)CC3)nc2c1 [Example 277, 6-[(4R)-4-hydroxy-2-oxopyrrolidin-1-yl]-1-methyl-4-[4-methyl-4-(5-methyl-1,3-benzoxazol-2-yl)piperidin-1-yl]-2-oxo-1,2-dihydroquinoline-3-carbonitrile] | 243
8 | Cc1ccc2oc(C3(C)CCN(c4c(C#N)c(=O)n(C)c5ccc(OC6CCC6)cc45)CC3)nc2c1 [Example 278, 6-(cyclobutyloxy)-1-methyl-4-[4-methyl-4-(5-methyl-1,3-benzoxazol-2-yl)piperidin-1-yl]-2-oxo-1,2-dihydroquinoline-3-carbonitrile] | 480
9 | CCCOc1ccc2c(c1)c(N1CCC(C)(c3nc4cc(C)ccc4o3)CC1)c(C#N)c(=O)n2C [Example 279, 1-methyl-4-[4-methyl-4-(5-methyl-1,3-benzoxazol-2-yl)piperidin-1-yl]-2-oxo-6-propoxy-1,2-dihydroquinoline-3-carbonitrile] | 1280
10 | Cc1ccc2oc(C3(C)CCN(c4c(C(N)=O)c(=O)n(C)c5ccc(N6C[C@H](O)CC6=O)cc45)CC3)nc2c1 [Example 280, 6-[(4R)-4-hydroxy-2-oxopyrrolidin-1-yl]-1-methyl-4-[4-methyl-4-(5-methyl-1,3-benzoxazol-2-yl)piperidin-1-yl]-2-oxo-1,2-dihydroquinoline-3-carboxamide] | 4740
11 | Cc1ccc2oc(C3CCN(c4c(C#N)c(=O)n(C)c5cc(Br)ccc45)CC3)nc2c1 [Example 281, 7-bromo-1-methyl-4-[4-(5-methyl-1,3-benzoxazol-2-yl)piperidin-1-yl]-2-oxo-1,2-dihydroquinoline-3-carbonitrile] | 8.9
12 | Cc1ccc2oc(C3CCN(c4c(C#N)c(=O)n(C)c5cc(P(C)(C)=O)ccc45)CC3)nc2c1 [Example 282, 7-(dimethylphosphoryl)-1-methyl-4-[4-(5-methyl-1,3-benzoxazol-2-yl)piperidin-1-yl]-2-oxo-1,2-dihydroquinoline-3-carbonitrile] | 872
13 | COCCc1ccc2oc(C3CCN(c4c(C#N)c(=O)n(C)c5ccccc45)CC3)nc2c1 [Example 283, 4-{4-[5-(2-methoxyethyl)-1,3-benzoxazol-2-yl]piperidin-1-yl}-1-methyl-2-oxo-1,2-dihydroquinoline-3-carbonitrile] | 6.8
14 | COCCc1ccc2nc(C3CCN(c4c(C#N)c(=O)n(C)c5ccccc45)CC3)oc2c1 [Example 284, 4-{4-[6-(2-methoxyethyl)-1,3-benzoxazol-2-yl]piperidin-1-yl}-1-methyl-2-oxo-1,2-dihydroquinoline-3-carbonitrile] | 9.3
15 | Cc1ccc2oc(C3(C)CCN(c4c(C#N)c(=O)n(C)c5cc(CC6COC6)ccc45)CC3)nc2c1 [Example 285, 1-methyl-4-[4-methyl-4-(5-methyl-1,3-benzoxazol-2-yl)piperidin-1-yl]-7-[(oxetan-3-yl)methyl]-2-oxo-1,2-dihydroquinoline-3-carbonitrile] | 10
16 | Cc1ccc2oc(C3(C)CCN(c4c(C#N)c(=O)n(C)c5ccc(CC6COC6)cc45)CC3)nc2c1 [Example 286, 1-methyl-4-[4-methyl-4-(5-methyl-1,3-benzoxazol-2-yl)piperidin-1-yl]-6-[(oxetan-3-yl)methyl]-2-oxo-1,2-dihydroquinoline-3-carbonitrile] | 374

Row | Structure (SMILES) | IC50 [nM]
17 | Cn1c(=O)c(C#N)c(N2CCC(c3nc4cc(C5COC5)ccc4o3)CC2)c2ccccc21 [Example 287, 1-methyl-4-{4-[5-(oxetan-3-yl)-1,3-benzoxazol-2-yl]piperidin-1-yl}-2-oxo-1,2-dihydroquinoline-3-carbonitrile] | 22
18 | Cc1ccc2oc(C3(C)CCN(c4c(C#N)c(=O)n(C)c5ccccc45)CC3)nc2c1 [Example 288, 1-methyl-4-[4-methyl-4-(5-methyl-1,3-benzoxazol-2-yl)piperidin-1-yl]-2-oxo-1,2-dihydroquinoline-3-carbonitrile] | 3.8
19 | Cc1ccc2oc(C3CCN(c4c(C#N)c(=O)n(C)c5cc(C(F)(F)F)ccc45)CC3)nc2c1 [Example 289, 1-methyl-4-[4-(5-methyl-1,3-benzoxazol-2-yl)piperidin-1-yl]-2-oxo-7-(trifluoromethyl)-1,2-dihydroquinoline-3-carbonitrile] | 8.3
20 | Cc1ccc2oc(C3(C)CCN(c4c(C#N)c(=O)n(C)c5cc(C(F)(F)F)ccc45)CC3)nc2c1 [Example 290, 1-methyl-4-[4-methyl-4-(5-methyl-1,3-benzoxazol-2-yl)piperidin-1-yl]-2-oxo-7-(trifluoromethyl)-1,2-dihydroquinoline-3-carbonitrile] | 10
21 | Cn1c(=O)c(C#N)c(N2CCC(c3nc4ccccc4o3)CC2)c2ccc(C(F)(F)F)cc21 [Example 291, 4-[4-(1,3-benzoxazol-2-yl)piperidin-1-yl]-1-methyl-2-oxo-7-(trifluoromethyl)-1,2-dihydroquinoline-3-carbonitrile] | 11
22 | Cn1c(=O)c(C#N)c(N2CCC(C)(c3nc4ccccc4o3)CC2)c2ccc(C(F)(F)F)cc21 [Example 292, 4-[4-(1,3-benzoxazol-2-yl)-4-methylpiperidin-1-yl]-1-methyl-2-oxo-7-(trifluoromethyl)-1,2-dihydroquinoline-3-carbonitrile] | 3.2
23 | Cc1ccc2oc(C3CCN(c4c(C#N)c(=O)n(C)c5cc(O)ccc45)CC3)nc2c1 [Example 293, 7-hydroxy-1-methyl-4-[4-(5-methyl-1,3-benzoxazol-2-yl)piperidin-1-yl]-2-oxo-1,2-dihydroquinoline-3-carbonitrile] | 2.1
24 | Cn1c(=O)c(C#N)c(N2CCC(c3nc4ccc(Br)cc4o3)CC2)c2ccccc21 [Example 294, 4-[4-(6-bromo-1,3-benzoxazol-2-yl)piperidin-1-yl]-1-methyl-2-oxo-1,2-dihydroquinoline-3-carbonitrile] | 12
25 | COCCc1ccc2oc(C3CCN(c4c(C(N)=O)c(=O)n(C)c5ccccc45)CC3)nc2c1 [Example 295, 4-{4-[5-(2-methoxyethyl)-1,3-benzoxazol-2-yl]piperidin-1-yl}-1-methyl-2-oxo-1,2-dihydroquinoline-3-carboxamide] | 9.5
26 | Cn1c(=O)c(C(N)=O)c(N2CCC(C)(c3nc4ccccc4o3)CC2)c2cc(F)ccc21 [Example 296, 4-[4-(1,3-benzoxazol-2-yl)-4-methylpiperidin-1-yl]-6-fluoro-1-methyl-2-oxo-1,2-dihydroquinoline-3-carboxamide] | 0.5
27 | Cn1c(=O)c(C(N)=O)c(N2CCC(C)(c3nc4ccccc4o3)CC2)c2ccc(Cl)cc21 [Example 297, 4-[4-(1,3-benzoxazol-2-yl)-4-methylpiperidin-1-yl]-7-chloro-1-methyl-2-oxo-1,2-dihydroquinoline-3-carboxamide] | 0.6
28 | Cc1ccc2oc(C3CCN(c4c(C(N)=O)c(=O)n(C)c5ccc(F)cc45)CC3)nc2c1 [Example 298, 6-fluoro-1-methyl-4-[4-(5-methyl-1,3-benzoxazol-2-yl)piperidin-1-yl]-2-oxo-1,2-dihydroquinoline-3-carboxamide] | 0.5
29 | Cn1c(=O)c(C(N)=O)c(N2CCC(c3nc4ccccc4o3)CC2)c2cc(F)ccc21 [Example 299, 4-[4-(1,3-benzoxazol-2-yl)piperidin-1-yl]-6-fluoro-1-methyl-2-oxo-1,2-dihydroquinoline-3-carboxamide] | 1
30 | Cn1c(=O)c(C(N)=O)c(N2CCC(c3nc4ccccc4o3)CC2)c2ccc(Cl)cc21 [Example 300, 4-[4-(1,3-benzoxazol-2-yl)piperidin-1-yl]-7-chloro-1-methyl-2-oxo-1,2-dihydroquinoline-3-carboxamide] | 1.2
31 | Cc1ccc2oc(C3CCN(c4c(C(N)=O)c(=O)n(C)c5cc(Cl)ccc45)CC3)nc2c1 [Example 301, 7-chloro-1-methyl-4-[4-(5-methyl-1,3-benzoxazol-2-yl)piperidin-1-yl]-2-oxo-1,2-dihydroquinoline-3-carboxamide] | 1.4
32 | Cc1ccc2oc(C3(C)CCN(c4c(C(N)=O)c(=O)n(C)c5ccccc45)CC3)nc2c1 [Example 302, 1-methyl-4-[4-methyl-4-(5-methyl-1,3-benzoxazol-2-yl)piperidin-1-yl]-2-oxo-1,2-dihydroquinoline-3-carboxamide] | 1.1
